{"source": "ChEMBL document CHEMBL5380796", "about": "“Small Molecular Mimetics of Antimicrobial Peptides as a Promising Therapy To Combat Bacterial Resistance” (J Med Chem, 2023)", "key": {"Staphylococcus aureus [1]": {"system": "Staphylococcus aureus", "assay": "Antibacterial activity against Staphylococcus aureus assessed as bacterial growth inhibition", "assay_type": "functional"}, "Escherichia coli [2]": {"system": "Escherichia coli", "assay": "Antibacterial activity against Escherichia coli assessed as bacterial growth inhibition", "assay_type": "functional"}, "Micrococcus luteus": {"system": "Micrococcus luteus", "assay": "Antibacterial activity against Micrococcus luteus DSM 1790 assessed as bacterial growth inhibition by microdilution assay", "assay_type": "functional"}, "Staphylococcus aureus [3]": {"system": "Staphylococcus aureus", "assay": "Antibacterial activity against Staphylococcus aureus ATCC 25923 assessed as bacterial growth inhibition by microdilution assay", "assay_type": "functional"}, "Staphylococcus aureus [4]": {"system": "Staphylococcus aureus", "assay": "Antibacterial activity against Staphylococcus aureus ATCC 25923 assessed as bacterial growth inhibition", "assay_type": "functional"}, "Staphylococcus aureus [5]": {"system": "Staphylococcus aureus", "assay": "Antibacterial activity against Staphylococcus aureus assessed as bacterial growth inhibition measured after 24 hrs by CLSI based micro broth double dilution method", "assay_type": "functional"}, "Escherichia coli [6]": {"system": "Escherichia coli", "assay": "Antibacterial activity against Escherichia coli assessed as bacterial growth inhibition measured after 24 hrs by CLSI based micro broth double dilution method", "assay_type": "functional"}, "Staphylococcus aureus [7]": {"system": "Staphylococcus aureus", "assay": "Antibacterial activity against methicillin-resistant Staphylococcus aureus ATCC 33591 assessed as bacterial growth inhibition", "assay_type": "functional"}, "Pseudomonas aeruginosa [8]": {"system": "Pseudomonas aeruginosa", "assay": "Antibacterial activity against Pseudomonas aeruginosa ATCC 27853 assessed as bacterial growth inhibition", "assay_type": "functional", "conditions": "ATCC27853"}, "Escherichia coli [9]": {"system": "Escherichia coli", "assay": "Antibacterial activity against Escherichia coli ATCC 25922 assessed as bacterial growth inhibition", "assay_type": "functional"}, "Clostridioides difficile": {"system": "Clostridioides difficile", "assay": "Antibacterial activity against Clostridium difficile UK6 assessed as bacterial growth inhibition", "assay_type": "functional"}, "Klebsiella pneumoniae [10]": {"system": "Klebsiella pneumoniae", "assay": "Antibacterial activity against Klebsiella pneumoniae ATCC 13383 assessed as bacterial growth inhibition", "assay_type": "functional"}, "[11]": {"system": "Staphylococcus epidermidis", "assay": "Antibacterial activity against methicillin-resistant Staphylococcus epidermidis RP62A assessed as bacterial growth inhibition", "assay_type": "functional"}, "Enterococcus": {"system": "Enterococcus", "assay": "Antibacterial activity against […] assessed as bacterial growth inhibition", "assay_type": "functional"}, "Escherichia coli [12]": {"system": "Escherichia coli", "assay": "Antibacterial activity against Escherichia coli ATCC 25922 assessed as bacterial growth inhibition incubated for 12 to 16 hrs by microtiter plate reader based analysis", "assay_type": "functional", "conditions": "time 12-16 hrs"}, "Pseudomonas aeruginosa [13]": {"system": "Pseudomonas aeruginosa", "assay": "Antibacterial activity against Pseudomonas aeruginosa ATCC 27853 assessed as bacterial growth inhibition incubated for 12 to 16 hrs by microtiter plate reader based analysis", "assay_type": "functional", "conditions": "time 12-16 hrs"}, "Staphylococcus aureus [14]": {"system": "Staphylococcus aureus", "assay": "Antibacterial activity against methicillin-resistant Staphylococcus aureus ATCC 33592 assessed as bacterial growth inhibition incubated for 12 to 16 hrs by microtiter plate reader based analysis", "assay_type": "functional", "conditions": "time 12-16 hrs"}, "[15]": {"system": "Staphylococcus epidermidis", "assay": "Antibacterial activity against methicillin-resistant Staphylococcus epidermidis RP62A assessed as bacterial growth inhibition incubated for 12 to 16 hrs by microtiter plate reader based analysis", "assay_type": "functional", "conditions": "time 12-16 hrs"}, "Enterococcus faecalis": {"system": "Enterococcus faecalis", "assay": "Antibacterial activity against vancomycin- resistant Enterococcus faecalis ATCC 700802 assessed as bacterial growth inhibition incubated for 12 to 16 hrs by microtiter plate reader based analysis", "assay_type": "functional", "conditions": "ATCC700802, time 12-16 hrs"}, "[16]": {"assay": "Hemolytic activity in human RBC incubated for 10 mins by absorbance based analysis", "assay_type": "toxicity, cell-based, Erythrocyte", "conditions": "red blood cells (erythrocytes)"}, "Pseudomonas aeruginosa [17]": {"system": "Pseudomonas aeruginosa", "assay": "Antibacterial activity against Pseudomonas aeruginosa assessed as bacterial growth inhibition", "assay_type": "functional"}, "Klebsiella pneumoniae [18]": {"system": "Klebsiella pneumoniae", "assay": "Antibacterial activity against Klebsiella pneumoniae assessed as bacterial growth inhibition", "assay_type": "functional"}, "[19]": {"assay": "Cytotoxicity against mouse 3T3 cells assessed as reduction in cell viability", "assay_type": "toxicity, cell-based", "conditions": "NIH3T3 cells"}, "[20]": {"assay": "Cytotoxicity against human HepG2 cells assessed as reduction in cell viability", "assay_type": "toxicity, cell-based"}, "Staphylococcus aureus [21]": {"system": "Staphylococcus aureus", "assay": "Antibacterial activity against methicillin-resistant Staphylococcus aureus assessed as bacterial growth inhibition by broth microdilution method", "assay_type": "functional"}, "Escherichia coli [22]": {"system": "Escherichia coli", "assay": "Antibacterial activity against Escherichia coli assessed as bacterial growth inhibition by broth microdilution method", "assay_type": "functional"}}, "note": "Non-standard residues stand in square brackets, D forms with d. Residues, ends and D or L forms follow the SMILES beside them. Dip = N[C@H](C(=O)O)C(c1ccccc1)c1ccccc1; 2Nal = N[C@@H](Cc1ccc2ccccc2c1)C(=O)O", "data": [{"compound": "CC(C)CCOC(=O)[C@H](CC(C)C)NC(=O)[C@@H](CCCNC(=N)N)NC(=O)[C@@H](CCCCN)NC(=O)COc1ccc2ccccc2c1-c1c(OCCC(C)C)ccc2ccccc12", "values": [{"measurement": "MIC", "setting": "Staphylococcus aureus [1]", "result": 2, "unit": "µg/mL"}]}, {"compound": "CC(C)(C)c1cc(C(C)(C)C)c2[nH]c(C(C)(C)C)c(C[C@H](N)C(=O)N[C@@H](CCCNC(=N)N)C(=O)NCc3ccccc3)c2c1", "values": [{"measurement": "MIC", "setting": "Staphylococcus aureus [1]", "result": 2.5, "unit": "µg/mL"}, {"measurement": "MIC", "setting": "Escherichia coli [2]", "result": 10, "unit": "µg/mL"}]}, {"compound": "COC(=O)[C@H](CCCNC(=N)N)NC(=O)[C@H](Cc1c(C(C)(C)C)[nH]c2c(C(C)(C)C)cc(C(C)(C)C)cc12)NC(=O)[C@@H](N)CCCNC(=N)N", "values": [{"measurement": "MIC", "setting": "Staphylococcus aureus [1]", "result": 5, "unit": "µg/mL"}, {"measurement": "MIC", "setting": "Escherichia coli [2]", "result": 20, "unit": "µg/mL"}]}, {"compound": "CC(C)(C)c1ccc(CC(N)C(=O)NC(CCCNC(=N)N)C(=O)Nc2cc(NC(=O)C(CCCNC(=N)N)NC(=O)C(N)Cc3ccc(C(C)(C)C)cc3)cc(C(N)=O)c2)cc1", "note": "(centres undefined)", "values": [{"measurement": "MIC", "setting": "Micrococcus luteus", "result": 1.9, "unit": "µg/mL"}, {"measurement": "MIC", "setting": "Staphylococcus aureus [3]", "result": 1.9, "unit": "µg/mL"}, {"measurement": "MIC", "setting": "Staphylococcus aureus [4]", "result": 1.9, "unit": "µg/mL"}]}, {"compound": "CCCOc1c2cc(C[N+](C)(C)C)cc1Cc1cc(C[N+](C)(C)C)cc(c1OCCC)Cc1cc(C[N+](C)(C)C)cc(c1OCCC)Cc1cc(C[N+](C)(C)C)cc(c1OCCC)C2", "values": [{"measurement": "MIC", "setting": "Staphylococcus aureus [5]", "result": 16, "unit": "µg/mL"}, {"measurement": "MIC", "setting": "Escherichia coli [6]", "result": 16, "unit": "µg/mL"}]}, {"compound": "CCCCCCN1C(=N)N(CC(=O)Nc2cccc(NC(=O)CN3C[C@H](Cc4ccccc4)N(CCCCCC)C3=N)c2)C[C@@H]1Cc1ccccc1", "values": [{"measurement": "MIC", "setting": "Staphylococcus aureus [7]", "result": 0.16, "unit": "µg/mL"}, {"measurement": "MIC", "setting": "Pseudomonas aeruginosa [8]", "result": 6, "unit": "µg/mL"}, {"measurement": "MIC", "setting": "Escherichia coli [9]", "result": 1.5, "unit": "µg/mL"}, {"measurement": "MIC", "setting": "Clostridioides difficile", "result": 1, "unit": "µg/mL"}, {"measurement": "MIC", "setting": "Klebsiella pneumoniae [10]", "result": 1.5, "unit": "µg/mL"}, {"measurement": "MIC", "setting": "[11]", "result": 0.75, "unit": "µg/mL"}, {"measurement": "MIC", "setting": "Enterococcus", "result": 0.75, "unit": "µg/mL"}]}, {"compound": "CCCCCCCCCCCCCCCC(=O)N[C@@H](CCCCN)C(=O)N[C@@H](Cc1ccccc1)CN(CC(N)=O)C(=O)CCCN", "values": [{"measurement": "MIC", "setting": "Escherichia coli [12]", "result": 4, "unit": "µg/mL"}, {"measurement": "MIC", "setting": "Pseudomonas aeruginosa [13]", "result": 2, "unit": "µg/mL"}, {"measurement": "MIC", "setting": "Staphylococcus aureus [14]", "result": 2, "unit": "µg/mL"}, {"measurement": "MIC", "setting": "[15]", "result": 2, "unit": "µg/mL"}, {"measurement": "MIC", "setting": "Enterococcus faecalis", "result": 2, "unit": "µg/mL"}, {"measurement": "HC50 at 10 min", "setting": "[16]", "result": 150, "unit": "µg/mL"}]}, {"compound": "CC(C)NC(=O)N[C@H](CNC(=O)N[C@@H](CCCCN)CNC(=N)N[C@H](CNC(=O)N[C@H](CNC(=O)N[C@@H](CCCCN)CNC(=O)N[C@H](CNC(=O)N[C@@H](CCCCN)CNC(N)=O)Cc1c[nH]c2ccccc12)C(C)C)Cc1c[nH]c2ccccc12)C(C)C", "values": [{"measurement": "MIC", "setting": "Staphylococcus aureus [1]", "result": 32, "unit": "µg/mL"}, {"measurement": "MIC", "setting": "Escherichia coli [2]", "result": 64, "unit": "µg/mL"}, {"measurement": "MIC", "setting": "Pseudomonas aeruginosa [17]", "result": 256, "unit": "µg/mL"}]}, {"compound": "CC(C)(C)c1cc(NC(=O)c2cc(OCCN)cc(C(=O)Nc3cc(C(C)(C)C)cc(NC(=O)[C@H](N)CCCNC(=N)N)c3SCCN)c2)c(SCCN)c(NC(=O)[C@H](N)CCCNC(=N)N)c1", "values": [{"measurement": "MIC", "setting": "Staphylococcus aureus [1]", "result": 12.5, "unit": "µg/mL"}, {"measurement": "MIC", "setting": "Escherichia coli [2]", "result": 12.5, "unit": "µg/mL"}]}, {"compound": "CC(=O)c1cccc(C(=O)Nc2cc(C(C)(C)C)cc(NC(=O)c3cccc(C(=O)Nc4cc(C(C)(C)C)cc(N)c4SCCN)c3)c2SCCN)c1", "values": [{"measurement": "MIC", "setting": "Escherichia coli [2]", "result": 19, "unit": "µg/mL"}, {"measurement": "MIC", "setting": "Klebsiella pneumoniae [18]", "result": 66, "unit": "µg/mL"}]}, {"compound": "COC(=O)[C@@H]1CCCCc2cc3ccccc3c(c2OC)-c2c(OC)c(cc3ccccc23)CC(NC(C)=O)C(=O)N[C@H](CCCCN)C(=O)N1", "note": "(some centres undefined)", "values": [{"measurement": "MIC", "setting": "Staphylococcus aureus [1]", "result": 15, "unit": "µg/mL"}]}, {"compound": "COc1cc(OC)c(C(=O)Nc2cc(C(F)(F)F)cc(NC(=O)CCCCNC(=N)N)c2SCCN)cc1C(=O)Nc1cc(C(F)(F)F)cc(NC(=O)CCCCNC(=N)N)c1SCCN", "values": [{"measurement": "MIC", "setting": "Staphylococcus aureus [1]", "result": 0.2, "unit": "µg/mL"}, {"measurement": "MIC", "setting": "Escherichia coli [2]", "result": 3.1, "unit": "µg/mL"}, {"measurement": "EC50", "setting": "[19]", "result": "> 2000", "unit": "µg/mL"}, {"measurement": "EC50", "setting": "[20]", "result": "> 2000", "unit": "µg/mL"}, {"measurement": "MIC", "setting": "Pseudomonas aeruginosa [17]", "result": 13, "unit": "µg/mL"}]}, {"compound": "N=C(N)NCCC[C@@H]1NC(=O)[C@H](CCCNC(=N)N)NC(=O)[C@H](CCCNC(=N)N)NC(=O)[C@H](Cc2ccc3ccccc3c2)NC(=O)[C@H](Cc2ccc3ccccc3c2)NC(=O)[C@H](Cc2ccc3ccccc3c2)NC(=O)[C@H](CCCNC(=N)N)NC1=O", "note": "(cyclo(RRRR[2Nal][2Nal][2Nal]))", "values": [{"measurement": "MIC", "setting": "Staphylococcus aureus [21]", "result": 3.1, "unit": "µg/mL"}, {"measurement": "MIC", "setting": "Escherichia coli [22]", "result": 12.5, "unit": "µg/mL"}]}, {"compound": "N=C(N)NCCC[C@@H]1NC(=O)[C@H](CCCNC(=N)N)NC(=O)[C@H](CCCNC(=N)N)NC(=O)[C@H](C(c2ccccc2)c2ccccc2)NC(=O)[C@H](C(c2ccccc2)c2ccccc2)NC(=O)[C@H](C(c2ccccc2)c2ccccc2)NC(=O)[C@H](CCCNC(=N)N)NC1=O", "note": "(cyclo(RRRR[Dip][Dip][Dip]))", "values": [{"measurement": "MIC", "setting": "Staphylococcus aureus [21]", "result": 3.1, "unit": "µg/mL"}, {"measurement": "MIC", "setting": "Escherichia coli [22]", "result": 12.5, "unit": "µg/mL"}]}, {"compound": "CC(C)(C)c1cc(C(C)(C)C)c2[nH]c(C(C)(C)C)c(C[C@H](NC(=O)[C@@H](N)CCCNC(=N)N)C(=O)N[C@@H](CCCNC(=N)N)C(=O)NCCc3ccccc3)c2c1", "note": "[LTX-109]", "values": [{"measurement": "MIC", "setting": "Staphylococcus aureus [1]", "result": 2.5, "unit": "µg/mL"}, {"measurement": "MIC", "setting": "Escherichia coli [2]", "result": 7.5, "unit": "µg/mL"}]}, {"compound": "H-WRWRW-NH2", "values": [{"measurement": "MIC", "setting": "Staphylococcus aureus [1]", "result": 10, "unit": "µg/mL"}, {"measurement": "MIC", "setting": "Escherichia coli [2]", "result": 15, "unit": "µg/mL"}]}]}
